Experimental data published in ChEMBL document CHEMBL4725419, “Complete Regression of Carcinoma via Combined C-RAF and EGFR Targeted Therapy” (2020).

Experiments:
[1] = Antiproliferative activity against EGFR/C-RAF knockdown human Panc198 cells harboring K-RAS G12D/TP53 D208V mutant xenografted in mouse tumor model assessed as inhibition of cell proliferation by MTT assay in presence of erlotinib; assay type: functional
[2] = Antiproliferative activity against EGFR/C-RAF knockdown human Panc4 cells harboring K-RAS G12D/TP53 P72R/R28W mutant xenografted in mouse tumor model assessed as inhibition of cell proliferation by MTT assay in presence of erlotinib; assay type: functional, Panc-4
[3] = Antiproliferative activity against EGFR/C-RAF knockdown human PDAC003T cells harboring K-RAS G12D/TP53 Q136P mutant xenografted in mouse tumor model assessed as inhibition of cell proliferation by MTT assay in presence of erlotinib; assay type: functional
PANC-1 = assay: Antiproliferative activity against EGFR/C-RAF knockdown human PANC-1 cells harboring K-RAS G12D/TP53 P72R/K129R mutant xenografted in mouse tumor model assessed as inhibition of cell proliferation by MTT assay in presence of erlotinib; assay type: functional
[4] = Antiproliferative activity against EGFR/C-RAF knockdown human PDAC013T cells harboring K-RAS G12D/TP53 I254T mutant xenografted in mouse tumor model assessed as inhibition of cell proliferation by MTT assay in presence of erlotinib; assay type: functional
[5] = Antiproliferative activity against EGFR/C-RAF knockdown human H-PDAC-M-X3 cells harboring K-RAS G12D/TP53 H179Y mutant xenografted in mouse tumor model assessed as inhibition of cell proliferation by MTT assay in presence of erlotinib; assay type: functional

C#Cc1cccc(Nc2ncnc3cc(OCCOC)c(OCCOC)cc23)c1 [ERLOTINIB]
INH [1]: 32.8 µM
INH [2]: 2.82 µM
INH [3]: 11.7 µM
INH (PANC-1): 6.1 µM
INH [4]: 2.05 µM
INH [5]: 24.5 µM
